{"source": "patent US8729053B2", "about": "“Nuclear factor kappa B pathway inhibitor composition and use of same” (The United States of America, as represented by the …, priority 2008, dated 2014)", "key": {"JB6 cells (clone 41)": {"tested_on": "JB6 cells (clone 41)", "assay": "JB6 soft agar cell transformation assay", "assay_type": "cell-based, mouse", "details": "for Transformation response to TPA: 10 days, TPA 10 ng/ml", "method": "JB6 cells (clone 41) were used to assess the inhibitory activity of compound I using CytoSelect 96-well Cell Transformation Assay (Cell Biolabs, Huissen, Netherlands) as Soft Agar Assay according to manufacturer's instructions. Cells were incubated for 10 days in 0.4% agar medium over 0.6% agar containing TPA or TPA with compound I or DMSO as a control. To measure anchorage-independent growth, agar-layers were dissolved and lysed. 10 μl of the lysed solutions of each well were mixed with CyQuant and the fluorescence read by iQ5 with a FAM filter of 485/520 nm. As an alternative analysis, cell dose curves of JB6 cells were quantified by the End point using CyQuant to indicate relative anchorage-independent colony number.\nIn order to evaluate the potential therapeutic activity of the compound, tests for the biological activity of compound I were performed. The compound is non-toxic to MCF-7, T47D, and MDA-MB-231 breast cancer cells as estimated by XTT assay at 10 μM. To determine the effects of compound I on invasion by breast cancer cell lines, a matrigel invasion assay was used. The levels of phosphorylated IκBα were confirmed in TPA treated ER-positive (MCF-7 and T47D) and ER-negative (MDA-MB-231) breast cancer cell lines and compared the levels to those after pretreatment with compound I. Although induced levels of phosphorylated IκBα varied with the cell line, IκBα phosphorylation was eliminated by compound I treatment in all three breast cancer cell lines. Compound I also produced no effect on the estrogen receptor activity in the ER-positive breast cancer cells using ERE promoter luciferase reporter assay. Invasion capacity of breast cancer cells was increased by TPA stimulation compared to DMSO treated vehicle control. […] Following anchorage-independent colony induction in TPA-treated cells without or with compound I, colonies were lysed and measured with CyQuant GR Dye to detect DNA by fluorescence plate reader as a measure of colony count. Total transformed colony numbers were calculated from RFU and cell dose curve of JB6 cells. […]"}, "p65/p50": {"tested_on": "p65/p50", "assay": "Nuclear translocation of p65/p50, immunoblot of nuclear and cytoplasmic extracts", "assay_type": "cell-based", "details": "compound I pretreatment, HEK293", "method": "(§1) To measure endogenous level of several proteins in response to TPA induction and compound I, HEK293 cells were lysed with RIPA buffer (10 mM Tris-HCl pH 7.5, 1 mM EDTA, 0.1% sodium dodecyl sulfate, 0.1% deoxycholate, and protease inhibitor). Whole cell extracts were subjected to immunoblot analysis with the following antibodies: p65 (F-6), p50 (E-10), p52 (C-5), RelB (C-19), IκBα (C-21), PCNA (F-2) were obtained from Santa Cruz Biotechnology (Santa Cruz, Calif.). IKKα, IKKβ, IKKγ, phospho-IκBα, phospho-IKKα/β, phospho-IKKγ, pohospho-Stat3 (Tyr 705 and Ser 727), phospho-p65 (Ser536 and Ser276), phospho-p44/42, phospho-JNKs were purchased from Cell Signaling (Danvers, Mass.), and α-tubulin from Sigma (St. Louis, Mo.). Nuclear and cytoplasmic extracts were prepared with HEK293 cells by NE-PER Nuclear and Cytoplasmic Extraction Reagents (Pierce Biotechnology, Rockford, Ill.) according to the manufacturer's protocol.\nNuclear translocation of endogenous p65/p50 and RelB/p52 heterodimers were monitored The activation of heterodimers p65/p50 and RelB/p52 occurs by distinct pathways dependent on IKKβ or IKKα catalytic activity. Repression of IKKβ would be expected to influence nuclear translocation of p65/p50 while repression of IKKα would influence processing of p100 to p52. […] However translocation of RelB is only dependent on IKKα for processing of its dimer partner p52 from p100. […]"}, "NF-1": {"tested_on": "NF-1", "assay": "EMSA of NF-1 DNA binding, HEK293 nuclear fractions", "assay_type": "cell-based", "details": "17 μM", "method": "EMSA was performed with the nuclear fraction of HEK293 cell using LightShift Chemiluminescent EMSA Kit (Pierce Biotechnology, Rockford, Ill.) according to the manufacture's instruction. Oligonucleotides for NFκB, NF-1, and AP-1 were labeled with biotin by Biotin 3′ End DNA labeling Kit (Pierce Biotechnology, Rockford, Ill.). The quantified 15 μg of nuclear extracts were incubated for 20 mins with 1 μg/μl Poly (dI.dC), biotin end-label target nucleotides in 20 μl binding buffer DNA-protein complexes were fractionated on 6% a polyacrylamide gel and transferred to a nylon membrane. The membranes were processed to detect biotin-label DNA by cross-linking, blocking, and detection incubations. Results were obtained by X-ray film exposure for 10 sec and development. The target sequences of oligonucleotides for NFκB, NF-1, and AP-1 are as follows;\nTo determine whether the effect of compound I on nuclear translocation of NFκB leads to inhibited binding of NFκB proteins to DNA, EMSA in HEK293 cells was performed. […] TPA-induced binding complex was attenuated by pretreatment with compound I in a dose-dependent manner (lanes 5-9). This binding inhibition parallels the inhibition of luciferase reporter transactivation and inhibition of nuclear translocation of NFκB proteins. […]"}, "RelB/p52": {"tested_on": "RelB/p52", "assay": "Nuclear translocation of RelB/p52 and p100 processing, immunoblot", "assay_type": "cell-based", "details": "HEK293", "method": "as §1\nNuclear translocation of endogenous p65/p50 and RelB/p52 heterodimers were monitored The activation of heterodimers p65/p50 and RelB/p52 occurs by distinct pathways dependent on IKKβ or IKKα catalytic activity. Repression of IKKβ would be expected to influence nuclear translocation of p65/p50 while repression of IKKα would influence processing of p100 to p52. […] However translocation of RelB is only dependent on IKKα for processing of its dimer partner p52 from p100. This processing depends on phosphorylation of p100 by IKKα. The processing of p100 to nuclear p52 was not inhibited by compound I but was proportional to expression levels of p100. Compound I inhibited expression of p100 by an unknown mechanism. […] Instead compound I inhibits IKKβ."}, "IκBα": {"tested_on": "IκBα", "assay": "Immunoblot of phosphorylated IκBα in HEK293 cells", "assay_type": "cell-based", "method": "as §1\nTo characterize the activity of compound I in targeting events upstream of NFκB, endogenous levels of kinases involved in NFκB activation were examined by immunoblot analysis. The well-established upstream regulators of NFκB activation are IKKα, IKKβ, and IκBα. […] Moreover, the phosphorylation of IκBα was inhibited even at 1.1 μM showing dose-dependent decrease by compound I pretreatment. […] In addition, compound I inhibits TNFα-induced phosphorylation of IKKα/β and IκBα at 1 hour. IKKβ from IKKα was not able to be distinguished in this analysis with antibodies which detect phosphorylated IKKα at Ser176/180 and IKKβ at Ser177/181. TPA-induced phosphorylation of IκBα is mediated primarily through IKKβ catalytic activity; thus compound I represses phosphorylation of IKKβ and in an embodiment both IKKβ and IKKα. […] The total protein levels of IKKα/β, IKKγ, and IκBα were not affected. Thus, upstream activation events rather than transcription factor binding to DNA are targeted by compound I when it inhibits NFκB induction."}}, "note": "Entries after “also recorded” stand apart in the source; their conditions may differ. Where a name gives a salt, the structure may show the parent alone."}
{"compound": "Cc1cc(N)ccc1N=Nc1ccc(S(=O)(=O)CCOS(=O)(=O)O)cc1", "note": "[compound I, 2-(4-((4-amino-2-methylphenyl)diazenyl)phenylsulfonyl)ethyl hydrogen sulfate]", "values": [{"measurement": "Tumor promoter induced transformation of JB6 cells", "setting": "JB6 cells (clone 41)", "result": "inhibits"}, {"measurement": "Transformation response to TPA", "setting": "JB6 cells (clone 41); 1.1 μM", "result": "decreased"}, {"measurement": "Transformation response to TPA", "setting": "JB6 cells (clone 41); 17.0 μM to 2.1 μM", "result": "repressed to below vehicle control level"}, {"measurement": "TPA-induced nuclear translocation of p65 (RelA)", "setting": "p65/p50", "result": "remarkably repressed; also recorded: interception"}, {"measurement": "NF-1 DNA binding activity", "setting": "NF-1", "result": "little or no effect"}, {"measurement": "Expression of p100", "setting": "RelB/p52", "result": "inhibited; also recorded: reduced"}, {"measurement": "Processing of p100 to nuclear p52", "setting": "RelB/p52", "result": "not inhibited; also recorded: did not inhibit"}, {"measurement": "TPA-induced nuclear translocation of RelB", "setting": "RelB/p52; compound I pretreatment", "result": "remarkably repressed"}, {"measurement": "TPA-induced phosphorylation of IκBα", "setting": "IκBα; 1.1 μM", "result": "inhibited; also recorded: reduced"}, {"measurement": "TPA-induced phosphorylation of IκBα", "setting": "IκBα; 17.0 and 8.5 μM pretreatment, HEK293", "result": "almost completely blocked; also recorded: complete blocking"}, {"measurement": "Total protein levels of IKKα/β, IKKγ, and IκBα", "setting": "IκBα; HEK293 immunoblot", "result": "not affected"}, {"measurement": "TPA-induced phosphorylation of IκBα", "setting": "IκBα; at 6 and 12 hours", "result": "inhibited"}, {"measurement": "TNFα-induced phosphorylation of IκBα", "setting": "IκBα; at 1 hour", "result": "inhibits"}]}
